Test results from patent US4599336A, “Derivatives of (E)-3-(4-oxo-4H-quinazolin-3-yl)-2-propenamide” (Hoffmann-La Roche Inc., priority 1983, dated 1986).
Like-named read-outs stand apart in the source and are kept apart here.

Key:
[1] = system: LTD4-induced blood pressure changes and arrhythmias; test: Leukotriene D4 (LTD4) Induced Arrhythmias in Conscious Guinea Pigs; format: in vivo, guinea pig; settings: 10 mg/kg iv, 5 minutes before LTD4; for Peak Hypertension (Δmm Hg): saline control 30 ± 4; for % Arrhythmias: saline control 33 ± 4; for Peak Hypotension (Δmm Hg): saline control -45 ± 4
Procedure: Male Hartley guinea pigs are anesthetized with sodium pentobarbital and prepared for monitoring direct blood pressure and injecting drugs intravenously by catheterizing the right carotid artery and right jugular vein. Blood pressure, heart rate, and Lead II ECG are monitored in the conscious animal 24 hours later.
Intravenous administration of LTD4 (2.5 μg/kg) is associated with an increase in blood pressure lasting approximately 1-2 minutes followed by a decrease lasting approximately 5-15 minutes. Abnormal beats consisting of premature ventricular contractions, ST elevation or depression, atrioventricular conduction block, or dissociated p waves begin during the rise in blood pressure; the peak effect occurs approximately 40 seconds after LTD4. The percent of abnormal beats was quantitated by determining the number present during the first 2 minutes after injection and calculating the percent increase above the control level. During the hypotensive response, the animal usually collapses during the 2nd or 3rd minute after LTD4 and regains posture approximately 10 minutes after LTD4.
Test compounds were administered 5 minutes before the LTD4 challenge and effects on blood pressure and arrhythmias were monitored.

TXA2 synthase = target: T1, TXA2 synthase (Homo sapiens, UniProt P24557); test: Thromboxane Synthase Inhibition, In Vitro; format: biochemical; settings: human platelet microsomes; for inhibition at 0.1 µM: at 10^-7 M
T1 construct: using microsomal fractions from human platelets as enzyme source; from tissue; host or cells: human platelets, microsomal fraction
T1 sequence (P24557 1-533): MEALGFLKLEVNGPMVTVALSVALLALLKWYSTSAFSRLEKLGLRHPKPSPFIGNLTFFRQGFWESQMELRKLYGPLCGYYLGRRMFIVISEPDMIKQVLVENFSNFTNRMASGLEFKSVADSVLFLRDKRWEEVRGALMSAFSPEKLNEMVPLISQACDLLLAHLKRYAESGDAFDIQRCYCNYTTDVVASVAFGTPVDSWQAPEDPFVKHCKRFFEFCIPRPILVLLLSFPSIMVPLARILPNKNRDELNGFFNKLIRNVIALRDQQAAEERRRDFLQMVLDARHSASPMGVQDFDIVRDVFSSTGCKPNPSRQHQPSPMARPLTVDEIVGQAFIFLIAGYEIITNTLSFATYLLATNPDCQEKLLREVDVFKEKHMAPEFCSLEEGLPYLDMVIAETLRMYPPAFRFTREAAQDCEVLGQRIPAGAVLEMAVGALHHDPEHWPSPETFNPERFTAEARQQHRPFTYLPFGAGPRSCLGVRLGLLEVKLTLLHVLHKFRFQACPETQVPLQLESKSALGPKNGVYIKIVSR
Procedure: TXA2 synthase activity is measured by following the conversion of ^14 C-prostaglandin endoperoxide (PGH2) to ^14 C-thromboxane A2 (TXA2) using microsomal fractions from human platelets as enzyme source. In the aqueous incubation medium, the TXA2 decomposes rapidly into TXB2. The amount of TXA2 synthase is adjusted so that under the conditions of the assay approximately 80-90% of the substrate, PGH2, is converted to product in control tubes. To prepare ^14 C--PGH2, ^14 C--AA (50-60 mCi/mmole; Rose Chem.) is incubated with sheep seminal vesicular gland microsomes for 1.5 minutes at 37° C. and then the ^14 C--PGH2 is extracted with diethylether, purified on columns of Sephadex LH-20 or silicic acid, and stored in acetone at -70° C. Incubations are done as follows. Sufficient ^14 C--PGH2 to yield a final substrate concentration of 10 μM (30,000 cpm) is added to the incubation tubes and then the acetone is removed under nitrogen. The tubes are placed in an ice bath and then 215 μl of ice cold phosphate buffered saline, 10 μl of ethanol (control) or of test drug in ethanol, and 25 μl of the microsomal suspension are added with mixing in that order as rapidly as possible. The tubes are incubated at 22° C. for 2 minutes, the reaction is stopped and then the radioactive products and the uncoverted PGH2 are extracted and analyzed by thin layer chromatography. […] The amount of ^14 C--PGH2 converted to products was used as a measure of TXA2 synthase activity. Inhibitors were tested initially at a final concentration of 100 μM. Results obtained with representative compounds of the present invention in this assay are summarized hereafter in Table I.

[2] = system: SRS-A-induced constriction of the guinea pig ileum; test: Guinea Pig Ileum, In Vitro (inhibition of SRS-A-induced constriction); format: cell-based; settings: Cavia porcellus; for IC50: SRS-A-induced constriction, in vitro, read-out: Guinea Pig Ileum, IC50
Procedure: The guinea pig ileum bioassay system has been described by Orange and Austen, Adv. Immunol. […] A 1.5 cm segment is removed from animals weighing 300-400 g. and suspended in an organ bath containing 10 ml. of Tyrodes solution with 10^-6 M atropine sulfate and 10^-6 M pyrilamine maleate. […] The SRS-A utilized in this screen is obtained by challenging chopped lung fragments from actively sensitized guinea pigs with egg albumin, in vitro. A dose-response curve to SRS-A challenge is established for the ileum. […] The drug concentration which inhibits, by 50%, the SRS-A-induced constriction of the guinea pig ileum is determined.

Δ^5 -Lipoxygenase = target: T2, Δ^5 -Lipoxygenase (Rattus norvegicus, UniProt P12527); test: Δ^5 -Lipoxygenase Inhibition; format: biochemical; settings: at 10^-5 M; RBL-1 cell supernatant
T2 construct: using rat basophil leukemia cells (RBL-1 cells) as the enzyme source; endogenous in cells; host or cells: RBL-1 (rat basophil leukemia) cells, 49,300×g supernatant of homogenate
T2 sequence (P12527 1-673): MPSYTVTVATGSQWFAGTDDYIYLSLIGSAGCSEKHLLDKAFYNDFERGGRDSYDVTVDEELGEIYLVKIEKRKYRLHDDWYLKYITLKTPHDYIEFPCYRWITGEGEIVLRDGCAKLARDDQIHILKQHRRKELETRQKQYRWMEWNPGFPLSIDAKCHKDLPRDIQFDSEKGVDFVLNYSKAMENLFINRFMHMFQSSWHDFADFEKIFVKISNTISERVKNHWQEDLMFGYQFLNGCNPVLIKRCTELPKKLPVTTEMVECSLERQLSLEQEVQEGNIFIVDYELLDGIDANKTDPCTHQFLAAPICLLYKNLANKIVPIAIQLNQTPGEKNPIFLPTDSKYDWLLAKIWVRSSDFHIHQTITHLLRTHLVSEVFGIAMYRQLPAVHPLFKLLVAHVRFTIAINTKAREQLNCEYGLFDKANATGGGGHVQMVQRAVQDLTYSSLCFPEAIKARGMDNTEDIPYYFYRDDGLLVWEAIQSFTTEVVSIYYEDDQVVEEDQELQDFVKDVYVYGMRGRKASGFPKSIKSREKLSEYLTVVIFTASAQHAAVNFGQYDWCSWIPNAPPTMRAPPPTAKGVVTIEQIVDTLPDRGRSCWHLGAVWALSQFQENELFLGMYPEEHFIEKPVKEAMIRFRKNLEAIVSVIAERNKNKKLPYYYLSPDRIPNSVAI
Procedure: Δ^5 -Lipoxygenase inhibition was measured by following the conversion of ^14 C-arachidonic acid to ^14 C-5-HETE, using rat basophil leukemia cells (RBL-1 cells) as the enzyme source. These cells were maintained in stationary stock cultures and grown in spinner cultures prior to isolation by centrifugation at 4° C. at 1,500×g for 10 minutes. The cells were washed three times at 4° C. with 0.05M Tris HCl (ph 7.2) containing 1 mM EDTA, 14 μM indomethacin and 0.9% NaCl. They were then homogenized at 0°-4° C. using a glass/glass homogenizer in 0.05M Tris-HCl (pH 7.2) containing 1 mM EDTA and 14 μM indomethacin. The homogenate was then centrifuged at 49,300×g for 20 minutes (0°-4° C.) and the resulting supernatant frozen in small aliquots in a dry ice/acetone bath prior to storage at -80° C. Under these conditions, the enzyme was stable to freezing and thawing and to preincubation for 10 minutes at 30° C.
For enzyme assay, 100-200 μl of enzyme was incubated in the presence and absence of test compound (prepared in DMSO) for 10 minutes at 30° C. in 0.05M Tris-HCl buffer (pH 7.2) containing 1 mM glutathione, 2 mM CaCl2, 14 μM indomethacin and 0.25 and 0.5 mM EDTA (final volume 400 μl). The final DMSO concentration in these assays was 4%. The assay was initiated by the addition of 100 μl ^14 C-arachidonic acid (58 mCi/mmole) and incubations were carried out for 10 minutes at 37° C. in a shaking water bath. The reactions were stopped by the simultaneous addition of 4.0 ml of diethylether and 100 μl of 1.0 m citric acid, while the tubes were vigorously vortexed. The ^14 C-5-HETE generated by the enzyme was extracted into the acidified ether layer which was separated from the aqueous layer by freezing the assay tubes in a dry ice/acetone bath prior to decanting the liquid ether layer. The ether layer was evaporated to dryness under N2, the residue dissolved in 65 μl chloroform:methanol (2:1 v/v), prior to separating ^14 C-5-HETE from other ^14 C-labeled compounds on silica gel impregnated glass fiber TLC plates utilizing an elution solvent of isoctane:methylethylketone:acetic acid (100:9:1 v/v). ^14 C-5-HETE was identified by its co-chromatography with a chemically synthesized standard. The radioactive peaks of the chromatogram were cut out and the radioactivity was quantitated by liquid scintillation counting. The amount of 5-HETE obtained per sample was expressed as the percent of total and was calculated in the basis of: [formula] in order to evaluate the effect of the test compounds, the mean percent inhibition of ^14 C-5-HETE production was calculated. The IC50 for a drug was determined from a linear regression analysis of a plot of the mean percent inhibition vs drug concentration.

[3] = target: T3, PAF receptor (dog platelets) (Canis lupus familiaris, UniProt A0A8I3NSH0); test: PAF Radioreceptor Binding Assay; settings: 3H-PAF
T3 construct: followed by 2×10^7 dog platelets; from tissue; host or cells: dog platelets, washed, intact
T3 sequence (A0A8I3NSH0 1-343): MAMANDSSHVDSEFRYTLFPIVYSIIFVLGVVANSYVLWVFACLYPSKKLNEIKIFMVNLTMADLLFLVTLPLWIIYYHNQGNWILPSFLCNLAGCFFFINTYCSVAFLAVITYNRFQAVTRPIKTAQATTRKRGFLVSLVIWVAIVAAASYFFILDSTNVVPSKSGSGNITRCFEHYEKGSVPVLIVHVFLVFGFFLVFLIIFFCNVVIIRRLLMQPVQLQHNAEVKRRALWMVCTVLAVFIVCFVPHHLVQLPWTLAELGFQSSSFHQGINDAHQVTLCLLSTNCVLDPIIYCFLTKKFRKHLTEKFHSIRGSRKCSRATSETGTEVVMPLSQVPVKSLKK
Procedure: Platelet rich plasma is prepared by centrifugation of citrate-treated dog blood. Acidification to pH 6.5 with 0.15M citric acid and centrifugation for 10 minutes at 1000 g yields a platelet pellet which is then washed by resuspension in EDTA-Phosphate Buffered Saline (PBS) and recentrifuged. The washed platelet preparation is adjusted to 2×10^7 platelets/50 μl in 0.1% BSA-PBS.
To a […] microfuge tube containing 50 μl silicone oil (specific gravity 1.023) is added buffer, PAF standard or analog, or an extract to bring the aqueous volume to 150 μl. 50 μl of ^3 H-PAF (10,000 cpm, 45 Ci/mM) is added followed by 2×10^7 dog platelets. After mixing, incubating for 10 minutes at room temperature, and centrifuging for 1 minute in a Beckman Microfuge B (8000 g), the pellet is removed by clipping off the tip of the tube, solubilizing the platelets with 200 μl of 50% methanol, and counting in 10 ml of Aquasol. […] Results obtained with representative compounds of the present invention in this assay are summarized hereinafter in Table I.

[4] = system: LTE4-induced increase of vascular permeability in rat skin; test: Rat Skin Permeability, In Vivo (LTE4-induced wheal); settings: LTE4 intradermal

CC(C)c1ccc2ncn(/C=C/C(=O)NCCCCn3ccnc3)c(=O)c2c1 [drawing 31]
Peak Hypertension (Δmm Hg) [1]: 10 ± 0 Δmm Hg
% Arrhythmias [1]: 0 ± 3%
Peak Hypotension (Δmm Hg) [1]: -45 ± 8 Δmm Hg

CC(C)c1ccc2ncn(/C=C/C(=O)NCCSc3ccncc3)c(=O)c2c1
inhibition at 0.1 µM (TXA2 synthase): 31%
IC50 [2]: 10 µM
inhibition at 10 µM (Δ^5 -Lipoxygenase): 56%

CC(C)c1ccc2ncn(/C=C/C(=O)N(C)CCCCc3cccnc3)c(=O)c2c1
inhibition at 0.1 µM (TXA2 synthase): 48%
IC50 [2]: 10 µM

CC(C)c1ccc2ncn(/C=C/C(=O)NCCNCc3cccnc3)c(=O)c2c1
inhibition at 1 µM (TXA2 synthase; at 10^-6 M): 33%
IC50 [2]: 8 µM

CC(C)c1ccc2ncn(/C=C/C(=O)NCCCNc3cccnc3)c(=O)c2c1
IC50 [2]: 5 µM
inhibition at 10 µM (Δ^5 -Lipoxygenase): 10%
IC50 [3]: > 1 µM

CC(C)c1cc(C(C)C)c2ncn(/C=C/C(=O)NCCCCc3cccnc3)c(=O)c2c1
inhibition at 0.1 µM (TXA2 synthase): 51%
IC50 [2]: 1 µM

CC(C)c1ccc2ncn(/C=C/C(=O)NCCCCCCNc3ccccn3)c(=O)c2c1
IC50 [2]: 5 µM
inhibition at 10 µM (Δ^5 -Lipoxygenase): 25%

CC(C)c1ccc2ncn(/C=C/C(=O)NCCCCn3ccnc3)c(=O)c2c1 [Compound C, N-[4-(1H-imidazol-1-yl)butyl]-(E)-3-[6-(1-methylethyl)-4-oxo-4H quinazolin-3-yl]-2-propenamide]
ED50 ([4]; iv, 0.5 h, i.v., read-out: I.D.50, skin wheal, i.v.): 17 mg/kg
ED50 ([4]; po, read-out: I.D.50, skin wheal, oral): 96 mg/kg

CC(C)c1ccc2ncn(/C=C/C(=O)NCCCCCCc3cccnc3)c(=O)c2c1
IC50 [3]: > 1 µM

CC(C)c1ccc2ncn(/C=C/C(=O)NCCCCOc3cccnc3)c(=O)c2c1 [drawing 30]
Peak Hypertension (Δmm Hg) [1]: 19 ± 7 Δmm Hg
% Arrhythmias [1]: 0 ± 0%
Peak Hypotension (Δmm Hg) [1]: -42 ± 9 Δmm Hg

CC(C)c1ccc2ncn(/C=C/C(=O)NCCCCc3cccnc3)c(=O)c2c1 [drawing 29]
Peak Hypertension (Δmm Hg) [1]: 21 ± 6 Δmm Hg
% Arrhythmias [1]: 1 ± 1%
Peak Hypotension (Δmm Hg) [1]: -45 ± 4 Δmm Hg

CC(C)c1ccc2ncn(/C=C/C(=O)NCCCCOc3cccnc3)c(=O)c2c1 [drawing 14]
inhibition at 0.1 µM (TXA2 synthase): 70%
inhibition at 10 µM ([2]; at 10^-5 M): 44%
IC50 [3]: > 1 µM
